Blank lines part the entries; values can stand above or below the compound they belong to.
Columns and labels:
[1] = Free radical trapping (DPPH) effect; details: in vitro, DPPH model
Source text: (§1) In the in vitro test, the compounds were solubilised in aqueous solution, either pure or containing DMSO or alcohol.
The overall "free radical trapping" effect was studied in vitro in a model using 1,1-diphenyl-2-picrylhydrazyl (DPPH) as stable free radical, the method being derived from that described by Lamaison et al., Plantes Medic. et phytotheraphie, XXII, 1988, 231-234.

saphena veins of rabbits = experiment: Contraction of isolated saphena veins produced by depolarisation (KCl, hyperpotassic solution); details: KCl 40 mM, compound 10 nM to 30 μM, rabbit; for EC50: Oryctolagus cuniculus, read-out: ED50 for increase in contractions of the saphena veins produced by KCl
Procedure: as §1
The contractile effect was measured in vitro:
by the contractile force exerted by vascular rings, either quiescent or stimulated (electrically or by physiological agents) and maintained under isometric conditions, and
The formula (A) compounds and their salts, if any, increase the contraction of animal saphena veins produced by noradrenalin and depolarisation (hyperpotassic solution) without in most cases affecting the arterial contractile responses. For example, 2-hydroxy-2-(2-methoxybenzoyl hydrazino)-indan-1,3-dione and the compound in Example 22 (10 nM to 30 μM) produce a more than 50% increase (ED50 ±0.3 microM) in contractions of the saphena veins of rabbits produced by KCl (40 mM).

[2] = Toxicity, single oral administration to the mouse; assay type: in vivo; details: 1 g/kg
Source text: The formula (A) compounds and their salts if any have very low toxicity.

[3] = system: basic venous tone of the rat; experiment: Basic venous tone and arterial pressure in vivo (normal and after cardiac arrest); details: 1 to 3 picomols intravenously
Procedure: (§2) In the in vivo test, the products were administered intravenously in the form of a pure aqueous solution or intraperitoneally in the form of an aqueous solution optionally containing DMSO or orally in solution or in suspension in carboxymethyl cellulose or in a composite aqueous solution containing Tween® and DMSO in certain cases.
In vivo, the arterial and venous pressure was measured under normal conditions and after cardiac arrest. During cardiac arrest, the venous tone was calculated from the venous and arterial pressure measured at equilibrium and corrected in dependence on the relative differences in compliance between these two networks (Samar and Coleman, Am. J. Physiol., 1978, 234:H94-100; Yamamoto et al., Am. J. Physiol., 1980, 238:H823-828).

[4] = system: oedema and leucocyte migration in the pleural cavity; experiment: Carrageenin-induced pleurisy in the rat; assay type: in vivo; details: intraperitoneally twice 20 mg/kg, six hours after carrageenin
Procedure: as §2
The compounds in Examples 1, 3 and 11 and 2-hydroxy-2-(3-methoxybenzoyl hydrazino)-indan-1,3-dione reduce vascular permeability by 10 to 50% when measured one to two hours after intraperitoneal administration of 5-20 mg/kg and 2 to 4 hours after oral administration of 5-20 mg/kg to the rat. The compound in Example 9 and 2-isonicotinoyl hydrazonoindan-1,3-dione, administered intraperitoneally twice in doses of 20 mg/kg, inhibit oedema and leucocyte migration in the pleural cavity, six hours after injection of carrageenin in the model of pleurisy in the rat.

SMILES: COc1ccc2c(=O)c(=NNc3cccc(F)c3)c(=O)c2c1 [2-(3-fluorophenyl hydrazono)-5-methoxyindan-1,3-dione]
maximum anti-radical effect [1]: more than 95%

EC50 (saphena veins of rabbits): ~0.3 µM
SMILES: COc1ccccc1C(=O)NNC1(O)C(=O)c2ccccc2C1=O [2-hydroxy-2-(2-methoxybenzoyl hydrazino)-indan-1,3-dione]
increase in contractions of the saphena veins produced by KCl (saphena veins of rabbits): more than 50%

SMILES: O=c1c(=NNc2ccccc2)c(=O)c2ccccc12 [2-phenyl hydrazonoindan-1,3-dione]
deaths [2]: no deaths | observed effects ([2]; in certain cases): coloured diarrhoea and coloured urine

SMILES: Cc1ccccc1C(=O)NNC1(O)C(=O)c2ccccc2C1=O [Example 6, 2-hydroxy-2-(2-methylbenzoylhydrazino)-indan-1,3-dione]
effect on arterial pressure [3]: without affecting the arterial pressure | increase in the basic venous tone [3]: more than 20%

EC50 (saphena veins of rabbits): ~0.3 µM
SMILES: COC(=O)NN=c1c(=O)c2ccccc2c1=O [Example 22, 2-methoxycarbonyl hydrazonoindan-1,3-dione]
increase in contractions of the saphena veins produced by KCl (saphena veins of rabbits): more than 50%

SMILES: COc1ccc(C(=O)NNC2(O)C(=O)c3ccccc3C2=O)cc1OC [Example 11, 2-(3,4-dimethoxybenzoylhydrazino)-2-hydroxyindan-1,3-dione]
effect on arterial pressure [3]: without affecting the arterial pressure | increase in the basic venous tone [3]: more than 20%

SMILES: O=C(NN=c1c(=O)c2ccccc2c1=O)c1ccncc1 [2-isonicotinoyl hydrazonoindan-1,3-dione]
inhibition of leucocyte migration in the pleural cavity [4]: inhibit | inhibition of oedema [4]: inhibit

SMILES: O=C(NNC1(O)C(=O)c2ccccc2C1=O)c1ccccc1O [Example 9, 2-hydroxy-2-(2-hydroxybenzoylhydrazino)-indan-1,3-dione]
inhibition of leucocyte migration in the pleural cavity [4]: inhibit | inhibition of oedema [4]: inhibit | maximum anti-radical effect [1]: more than 95%

SMILES: O=C(NNC1(O)C(=O)c2ccccc2C1=O)c1ccccc1 [Example 3, 2-benzoyl hydrazino-2-hydroxy-indan-1,3-dione]
increase in the basic venous tone [3]: more than 20%

From US5648381A, “Derivatives of indan-1,3-dione and indan-1,2,3-trione, methods of preparing them and therapeutic use thereof” (Innothera, priority 1992, dated 1997)
